Measured values from patent US5654318A, “Bicyclic amine derivatives” (Daiichi Pharmaceutical Co., Ltd., priority 1992, dated 1997).
≈ marks a conversion by molar mass, not a printed value.

What was measured:
[1] = pH 7.4
[2] = tested on: Ps. aeruginosa, 32121; assay: Antibacterial activity (MIC), Ps. aeruginosa, 32121; format: cell-based; details: Pseudomonas aeruginosa
Experimental: (§1) The present invention will now be illustrated by way of Formulation Examples, Reference Examples, and Examples, but the present invention should not be construed as being limited thereto. All the percents are by weight unless otherwise indicated. The antibacterial activity assays were performed by the method specified by Japan Society of Chemotherapy (Chemotherapy 29(1), 76 (1981), and the results are summarized in Table 1 in terms of minimum inhibitory concentration (MIC).

[3] = tested on: Str. pyogenes, G-36; assay: Antibacterial activity (MIC), Str. pyogenes, G-36; format: cell-based; details: Streptococcus pyogenes, G36
Experimental: as §1

[4] = tested on: Ser. marcescens, 10100; assay: Antibacterial activity (MIC), Ser. marcescens, 10100; format: cell-based; details: Serratia marcescens
Experimental: as §1

[5] = tested on: Pr. mirabiris, IFO-3849; assay: Antibacterial activity (MIC), Pr. mirabiris, IFO-3849; format: cell-based
Experimental: as §1

[6] = tested on: S. aureus, 209P; assay: Antibacterial activity (MIC), S. aureus, 209P; format: cell-based; details: Staphylococcus aureus
Experimental: as §1

[7] = tested on: S. aureus, Smith; assay: Antibacterial activity (MIC), S. aureus, Smith; format: cell-based; details: Staphylococcus aureus
Experimental: as §1

[8] = tested on: Pr. vulgaris, 08601; assay: Antibacterial activity (MIC), Pr. vulgaris, 08601; format: cell-based; details: Proteus vulgaris
Experimental: as §1

[9] = tested on: Str. faecalis, ATCC 19433; assay: Antibacterial activity (MIC), Str. faecalis, ATCC 19433; format: cell-based; details: Enterococcus faecalis, ATCC19433
Experimental: as §1

[10] = tested on: S. flexneli, 2A, 5503; assay: Antibacterial activity (MIC), S. flexneli, 2A, 5503; format: cell-based
Experimental: as §1

[11] = tested on: Ps. aeruginosa, 32104; assay: Antibacterial activity (MIC), Ps. aeruginosa, 32104; format: cell-based; details: Pseudomonas aeruginosa
Experimental: as §1

[12] = tested on: S. epidermidis, 56500; assay: Antibacterial activity (MIC), S. epidermidis, 56500; format: cell-based; details: Staphylococcus epidermidis
Experimental: as §1

[13] = tested on: E. coli NIHJ; assay: Antibacterial activity (MIC), E. coli NIHJ; format: cell-based; details: Escherichia coli
Experimental: as §1

Row | Partition Coefficient p' [1] | Compound | MIC [2] [µg/mL] | MIC [3] [µg/mL] | MIC [4] [µg/mL] | MIC [5] [µg/mL] | MIC [6] [µg/mL] | MIC [7] [µg/mL] | MIC [8] [µg/mL] | MIC [9] [µg/mL] | MIC [10] [µg/mL] | MIC [11] [µg/mL] | MIC [12] [µg/mL] | MIC [13] [µg/mL]
1 | 26.9 | O=C(O)c1cn([C@@H]2C[C@@H]2F)c2c(Cl)c(N3C[C@H]4NCCO[C@@H]4C3)c(F)cc2c1=O (mixture of isomers) [Ex. 7, (+)-8-Chloro-6-fluoro-1-[(1R,2S)-2-fluorocyclopropyl]-7-[trans-2-oxa-5,8-diazabicyclo[4.3.0]-nonan-8-yl]-1,4-dihydro-4-oxoquinoline-3-carboxylic acid] |  |  |  |  |  |  |  |  |  |  |  | 
2 | 24.8 | O=C(O)c1cn([C@@H]2C[C@@H]2F)c2c(Cl)c(N3C[C@H]4NCCO[C@@H]4C3)c(F)cc2c1=O (mixture of isomers) [Ex. 8, (-)-8-Chloro-6-fluoro-1-[(1R,2S)-2-fluorocyclopropyl]-7-[trans-2-oxa-5,8-diazabicyclo[4.3.0]nonan-8-yl]-1,4-dihydro-4-oxoquinoline-3-carboxylic acid] |  |  |  |  |  |  |  |  |  |  |  | 
3 |  | Nc1c(F)c(N2C[C@H]3NCCO[C@@H]3C2)c(F)c2c1c(=O)c(C(=O)O)cn2[C@@H]1C[C@@H]1F (mixture of isomers) [Ex. 9, 5-Amino-6,8-difluoro-1-[(1R,2S)-2-fluorocyclopropyl]-7-(trans-2-oxa-5,8-diazabicyclo[4.3.0]nonan-8-yl) -1,4-dihydro-4-oxoquinoline-3-carboxylic acid] | 0.05 | 0.2 | 0.1 | 0.05 | 0.013 | 0.006 | 0.025 | 0.1 | 0.013 | 0.2 | 0.025 | 0.006
4 | 112 | O=C(O)c1cn(C2CC2)c2c(Cl)c(N3C[C@H]4NCCO[C@@H]4C3)c(F)cc2c1=O (relative stereo) [Compound A, 8-chloro-1-cyclopropyl-6-fluoro-1,4-dihydro-7-(trans-2-oxa-5,8-diazabicyclo[4.3.0]nonan8-yl)-4-oxo-3-quinoline-3-carboxylic acid, reference compound] |  |  |  |  |  |  |  |  |  |  |  | 
5 | 35.8 | O=C(O)c1cn(C2CC2)c2c(Cl)c(N3C[C@@H]4CCCN[C@@H]4C3)c(F)cc2c1=O [Bay y 3118, reference compound] |  |  |  |  |  |  |  |  |  |  |  | 
6 |  | Nc1c(F)c(N2C[C@@H]3CCCN[C@@H]3C2)c(F)c2c1c(=O)c(C(=O)O)cn2[C@@H]1C[C@@H]1F [Ex. 3, 5-Amino-7-[(S,S)-2,8-diazabicyclo[4.3.0]nonan-8-yl]-6,8-difluoro-1-[(1R,2S)-2-fluorocyclopropyl]-1,4-dihydro-4-oxoquinoline-3-carboxylic acid] | 0.05 (≈ 0.118 µM) | 0.1 (≈ 0.237 µM) | 0.05 (≈ 0.118 µM) | 0.05 (≈ 0.118 µM) | 0.025 (≈ 0.0592 µM) | 0.006 (≈ 0.0142 µM) | 0.025 (≈ 0.0592 µM) | 0.1 (≈ 0.237 µM) | 0.013 (≈ 0.0308 µM) | 0.05 (≈ 0.118 µM) | 0.025 (≈ 0.0592 µM) | 0.006 (≈ 0.0142 µM)
7 |  | O=C(O)c1cn([C@@H]2C[C@@H]2F)c2c(Cl)c(N3CC4=C(CNC4)C3)c(F)cc2c1=O [Ex. 6, 8-Chloro-7-[3,7-diazabicyclo[3.3.0]oct-1(5)-ene-3-yl]-6-fluoro-1-[(1R,2S)-2-fluorocyclopropyl]-1,4-dihydro-4-oxoquinoline-3-carboxylic acid] | 0.1 (≈ 0.245 µM) | 0.1 (≈ 0.245 µM) | 0.2 (≈ 0.49 µM) | 0.05 (≈ 0.123 µM) | 0.025 (≈ 0.0613 µM) | 0.013 (≈ 0.0319 µM) | 0.013 (≈ 0.0319 µM) | 0.39 (≈ 0.956 µM) | 0.013 (≈ 0.0319 µM) | 0.2 (≈ 0.49 µM) | 0.1 (≈ 0.245 µM) | 0.025 (≈ 0.0613 µM)

Row | Compound | Partition Coefficient p' [1] | MIC [2] [µg/mL] | MIC [3] [µg/mL] | MIC [4] [µg/mL] | MIC [5] [µg/mL] | MIC [6] [µg/mL] | MIC [7] [µg/mL] | MIC [8] [µg/mL] | MIC [9] [µg/mL] | MIC [10] [µg/mL] | MIC [11] [µg/mL] | MIC [12] [µg/mL] | MIC [13] [µg/mL]
8 | O=C(O)c1cn([C@@H]2C[C@@H]2F)c2c(Cl)c(N3C[C@@H]4CCCN[C@@H]4C3)c(F)cc2c1=O [Ex. 2, 8-Chloro-7-([S,S]-2,8-diazabicyclo[4.3.0]nonan-8-yl)-8-chloro-6-fluoro-1-[(1R,2S)-2-fluorocyclopropyl]-1,4-dihydro-4-oxoquinoline-3-carboxylic Acid] | 6.69 | 0.05 (≈ 0.118 µM) | 0.05 (≈ 0.118 µM) | 0.025 (≈ 0.059 µM) | 0.025 (≈ 0.059 µM) | 0.013 (≈ 0.0307 µM) | 0.006 (≈ 0.0142 µM) | 0.013 (≈ 0.0307 µM) | 0.1 (≈ 0.236 µM) | 0.006 (≈ 0.0142 µM) | 0.05 (≈ 0.118 µM) | 0.05 (≈ 0.118 µM) | ≤ 0.003
9 | Cc1c(N2C[C@@H]3CCCN[C@@H]3C2)c(F)cc2c(=O)c(C(=O)O)cn([C@@H]3C[C@@H]3F)c12 [Ex. 4, 7-[(S,S)-2,8-diazabicyclo[4.3.0]nonan-8-yl]-6-fluoro-1-[(1R,2S)-2-fluorocyclopropyl]-8-methyl-1,4-dihydro-4-oxoquinoline-3-carboxylic acid] | 3.73 | 0.05 (≈ 0.124 µM) | 0.1 (≈ 0.248 µM) | 0.05 (≈ 0.124 µM) | 0.05 (≈ 0.124 µM) | 0.025 (≈ 0.062 µM) | 0.013 (≈ 0.0322 µM) | 0.025 (≈ 0.062 µM) | 0.2 (≈ 0.496 µM) | 0.025 (≈ 0.062 µM) | 0.1 (≈ 0.248 µM) | 0.05 (≈ 0.124 µM) | 0.013 (≈ 0.0322 µM)
10 | O=C(O)c1cn([C@@H]2C[C@@H]2F)c2c(F)c(N3C[C@@H]4CCCN[C@@H]4C3)c(F)cc2c1=O [Ex. 5, 7-[(S,S)-2,8-diazabicyclo[4.3.0]nonan-8-yl]-6,8-difluoro-1-[(1R,2S)-2-fluorocyclopropyl]-1,4-dihydro-4-oxoquinoline-3-carboxylic acid] | 5.84 | 0.05 (≈ 0.123 µM) | 0.1 (≈ 0.245 µM) | 0.05 (≈ 0.123 µM) | 0.05 (≈ 0.123 µM) | 0.025 (≈ 0.0614 µM) | 0.013 (≈ 0.0319 µM) | 0.013 (≈ 0.0319 µM) | 0.2 (≈ 0.491 µM) | 0.013 (≈ 0.0319 µM) | 0.1 (≈ 0.245 µM) | 0.1 (≈ 0.245 µM) | 0.013 (≈ 0.0319 µM)
